PMC11124394, “Novel Combretastatin A-4 Analogs—Design, Synthesis, and Antiproliferative and Anti-Tubulin Activity” (Molecules, 2024)

Experiments:
Assay type in all cases: cell-based
[1] = test system: MDA (breast cancer) cells; experiment: SRB cytotoxicity assay, MDA; conditions: Homo sapiens; SRB assay, 48 h culture, mean ± SD, at least three independent experiments; compounds marked * : low solubility, real values might be lower; read-out: Cytotoxicity IC50, MDA
Description: (§1) The antiproliferative activity was tested on human primary (SW480) and metastatic (SW620) colon cancer, human prostate cancer (PC3), human liver cancer (HepG2), human breast cancer (MDA), human lung cancer (A549), and human immortalized keratinocyte (HaCaT) cell lines obtained from the American Type Culture Collection (ATCC, Rockville, MD, USA). The cells were cultured in EMEM (SW480 and SW620), RPMI 1640 (PC3) or DMEM High Glucose (HepG2, MDA, A549, and HaCaT) with stable glutamine supplemented with 10% heat-inactivated fetal bovine serum (FBS), penicillin (100 U/mL), and streptomycin (100 µg/mL) in 37 °C and 5% CO2/95% air humified incubator. The cells were grown until 80–90% confluence and then were harvested with 0.25% trypsin and used for the experiments. All the reagents for the cell culture were provided by VWR Chemicals.
(§2) Cytotoxicity was tested with the sulforhodamine B (SRB) assay according to the National Cancer Institute protocol with slight modifications. Briefly, cells were seeded on a 96-well plate (5 × 10^3 cells per well). After 24 h incubation, zero-time control cells were fixed with TCA (final concentration 5%) for 1 h at 4 °C. […] The untreated cells were used as the control. After incubation, the cells were fixed with TCA (final concentration 5%) for 1 h at 4 °C, gently washed 4 times with tap water, and left for drying. The dried fixed cells were incubated with SRB solution (0.05% SRB in 1% acetic acid) for 30 min rt, washed four times with 1% acetic acid, and left for drying. The dried cells were dissolved in 10 mM Tris-base solution (pH 10.5) and the absorbance was read at 510 nm.
(§3) The cell viability was presented as a percent of SRB reduction in the treated cells versus that in control cells. The mean absorbance for control cells was assumed as 100%. No-cell control (blank well) absorbance was assumed as 0%, unless the compound was cytostatic, then 0% referred to zero-time control. The IC50 values were calculated using the GraphPad Prism 10.1.2 (324) (USA) software. The most cytotoxic compounds (8 and 20) were selected for further in vitro experiments.

[2] = test system: HepG2 (liver cancer) cells; experiment: SRB cytotoxicity assay, HepG2; conditions: Homo sapiens, HepG2; SRB assay, 48 h culture, mean ± SD, at least three independent experiments; compounds marked * : low solubility, real values might be lower; read-out: Cytotoxicity IC50, HepG2
Description: as §1, §2, §3

[3] = test system: A549 (lung cancer) cells; experiment: SRB cytotoxicity assay, A549; conditions: Homo sapiens, A549; SRB assay, 48 h culture, mean ± SD, at least three independent experiments; compounds marked * : low solubility, real values might be lower; read-out: Cytotoxicity IC50, A549
Description: as §1, §2, §3

[4] = test system: SW620 (metastatic colon cancer) cells; experiment: SRB cytotoxicity assay, SW620; conditions: Homo sapiens, SW-620; SRB assay, 48 h culture, mean ± SD, at least three independent experiments; compounds marked * : low solubility, real values might be lower; read-out: Cytotoxicity IC50, SW620
Description: as §1, §2, §3

[5] = test system: PC3 (prostate cancer) cells; experiment: SRB cytotoxicity assay, PC3; conditions: Homo sapiens; SRB assay, 48 h culture, mean ± SD, at least three independent experiments; compounds marked * : low solubility, real values might be lower; read-out: Cytotoxicity IC50, PC3
Description: as §1, §2, §3

[6] = test system: SW480 (primary colon cancer) cells; experiment: SRB cytotoxicity assay, SW480; conditions: Homo sapiens, SW480; SRB assay, 48 h culture, mean ± SD, at least three independent experiments; compounds marked * : low solubility, real values might be lower; read-out: Cytotoxicity IC50, SW480
Description: as §1, §2, §3

[7] = test system: six human cancer cell lines (SW480, SW620, PC3, HepG2, MDA, A549) and HaCaT; experiment: SRB cytotoxicity assay, whole panel; conditions: cell line panel
Description: The antiproliferative properties of the studied combretastatin derivatives were tested on six human cancer cell lines, including primary colon (SW480), metastatic colon (SW620), prostate (PC3), liver (HepG2), breast (MDA), and lung (A549) cancer cells, and non-tumor human immortalized keratinocyte cell line (HaCaT) using the sulforhodamine B (SRB) assay. […] No selectivity was observed against the tumor cell lines when compared to that against the non-tumor cell line. Nevertheless, these values were much higher than the IC50 of the reference compounds (<0.2 μM).
as §1, §2, §3

[8] = SRB cytotoxicity assay, HaCaT; conditions: human, HaCaT immortalized keratinocyte cells (non-tumor cell line), 48 h culture, mean ± SD, at least three independent experiments, compounds marked * : low solubility, real values might be lower
Description: as §1, §2, §3

**Q.** Which IC50 [1] does the source give for `COc1ccc(/C(=C\c2cc(OC)c(OC)c(OC)c2)C(=O)O)cc1Br` [Compound 3] here?
**A.** > 100 µM

**Q.** What about the IC50 [2] of the same molecule?
**A.** > 100 µM

**Q.** And the IC50 [3]?
**A.** > 100 µM

**Q.** And the IC50 [4]?
**A.** > 100 µM

**Q.** What about the IC50 [5] of the same molecule?
**A.** > 100 µM

**Q.** What about the IC50 [6] of the same molecule?
**A.** > 100 µM

**Q.** What about the “Cytotoxicity (in words)” value [7] of the same molecule?
**A.** does not have any anticancer potential

**Q.** What about the IC50 at 48 h [8] of the same molecule?
**A.** > 100 µM

**Q.** Which IC50 [1] does the source give for `COC(=O)/C(=C/c1cc(OC)c(OC)c(OC)c1)c1ccc(OC)c(Br)c1` [Compound 4] here?
**A.** 55.2 ± 17.3 µM

**Q.** And the IC50 [2]?
**A.** 63.7 ± 12.6 µM

**Q.** And the IC50 [3]?
**A.** 53 ± 10.8 µM

**Q.** And the IC50 [4]?
**A.** 61.8 ± 11.4 µM

**Q.** And the IC50 [5]?
**A.** 65.9 ± 16.1 µM

**Q.** And the IC50 [6]?
**A.** 57.6 ± 9.4 µM

**Q.** What about the IC50 at 48 h [8] of the same molecule?
**A.** 68.3 ± 19.6 µM

**Q.** With `CCOC(=O)/C(=C/c1cc(OC)c(OC)c(OC)c1)c1ccc(OC)c(Br)c1` [Compound 5] as the molecule, how does the IC50 [1] read?
**A.** 45.2 ± 5.5 µM

**Q.** What about the IC50 [2] of the same molecule?
**A.** 42.1 ± 10.2 µM

**Q.** And the IC50 [3]?
**A.** 46.6 ± 12.1 µM

**Q.** And the IC50 [4]?
**A.** 57.5 ± 3.9 µM

**Q.** What about the IC50 [5] of the same molecule?
**A.** 43.2 ± 10.2 µM

**Q.** What about the IC50 [6] of the same molecule?
**A.** 73.6 ± 8.4 µM

**Q.** What about the IC50 at 48 h [8] of the same molecule?
**A.** 45 ± 7.2 µM

**Q.** For `C#CCOC(=O)/C(=C/c1cc(OC)c(OC)c(OC)c1)c1ccc(OC)c(Br)c1` [Compound 6], which IC50 [1] is on record?
**A.** > 100 µM

**Q.** What about the IC50 [2] of the same molecule?
**A.** > 100 µM

**Q.** And the IC50 [3]?
**A.** > 100 µM

**Q.** And the IC50 [4]?
**A.** > 100 µM

**Q.** What about the IC50 [5] of the same molecule?
**A.** > 100 µM

**Q.** And the IC50 [6]?
**A.** > 100 µM

**Q.** And the IC50 at 48 h [8]?
**A.** > 100 µM

**Q.** Which IC50 [1] does the source give for `COc1ccc(/C(=C\c2cc(OC)c(OC)c(OC)c2)C(=O)OCc2ccccc2)cc1Br` [Compound 7] here?
**A.** > 100 µM

**Q.** What about the IC50 [2] of the same molecule?
**A.** > 100 µM

**Q.** What about the IC50 [3] of the same molecule?
**A.** > 100 µM

**Q.** What about the IC50 [4] of the same molecule?
**A.** > 100 µM

**Q.** And the IC50 [5]?
**A.** > 100 µM

**Q.** And the IC50 [6]?
**A.** > 100 µM

**Q.** What about the IC50 at 48 h [8] of the same molecule?
**A.** > 100 µM

**Q.** For `COc1ccc(/C(=C\c2cc(OC)c(OC)c(OC)c2)C(=O)OCCCCCCBr)cc1Br` [Compound 9], which IC50 [1] is on record?
**A.** > 100 µM

**Q.** And the IC50 [2]?
**A.** > 100 µM

**Q.** What about the IC50 [3] of the same molecule?
**A.** > 100 µM

**Q.** What about the IC50 [4] of the same molecule?
**A.** > 100 µM

**Q.** What about the IC50 [5] of the same molecule?
**A.** > 100 µM

**Q.** What about the IC50 [6] of the same molecule?
**A.** > 100 µM

**Q.** What about the “Cytotoxicity (in words)” value [7] of the same molecule?
**A.** did not show any cytotoxicity

**Q.** What about the IC50 at 48 h [8] of the same molecule?
**A.** > 100 µM

**Q.** With `CNC(=O)/C(=C/c1cc(OC)c(OC)c(OC)c1)c1ccc(OC)c(Br)c1` [Compound 10] as the molecule, how does the IC50 [1] read?
**A.** 55.5 ± 20.3 µM

**Q.** And the IC50 [2]?
**A.** 50.5 ± 10.5 µM

**Q.** And the IC50 [3]?
**A.** 49.3 ± 16.3 µM

**Q.** What about the IC50 [4] of the same molecule?
**A.** 46 ± 11.4 µM

**Q.** And the IC50 [5]?
**A.** 44.9 ± 12.1 µM

**Q.** What about the IC50 [6] of the same molecule?
**A.** 52.2 ± 17.9 µM

**Q.** What about the IC50 at 48 h [8] of the same molecule?
**A.** 55.3 ± 17 µM

**Q.** With `CCCCNC(=O)/C(=C/c1cc(OC)c(OC)c(OC)c1)c1ccc(OC)c(Br)c1` [Compound 11] as the molecule, how does the IC50 [1] read?
**A.** 61.4 ± 21.8 µM

**Q.** And the IC50 [2]?
**A.** 50.5 ± 17.5 µM

**Q.** What about the IC50 [3] of the same molecule?
**A.** 65.1 ± 17.3 µM

**Q.** What about the IC50 [4] of the same molecule?
**A.** 50.8 ± 14.5 µM

**Q.** And the IC50 [5]?
**A.** 67.2 ± 18.6 µM

**Q.** What about the IC50 [6] of the same molecule?
**A.** 50.2 ± 11.2 µM

**Q.** And the IC50 at 48 h [8]?
**A.** 58.6 ± 22.2 µM

**Q.** Which results are given for `C#CCNC(=O)/C(=C/c1cc(OC)c(OC)c(OC)c1)c1ccc(OC)c(Br)c1` [Compound 12]?
**A.** IC50 [1]: > 100 µM; IC50 [2]: > 100 µM; IC50 [3]: > 100 µM; IC50 [4]: > 100 µM; IC50 [5]: > 100 µM; IC50 [6]: > 100 µM; IC50 at 48 h [8]: > 100 µM

**Q.** For `COc1ccc(/C(=C\c2cc(OC)c(OC)c(OC)c2)C(=O)NCc2ccccc2)cc1Br` [Compound 13], which IC50 [1] is on record?
**A.** 59.8 ± 18.8 µM

**Q.** What about the IC50 [2] of the same molecule?
**A.** 56.2 ± 22.2 µM

**Q.** And the IC50 [3]?
**A.** 82.1 ± 13.9 µM

**Q.** What about the IC50 [4] of the same molecule?
**A.** 62.4 ± 3.1 µM

**Q.** And the IC50 [5]?
**A.** 55.8 ± 23.7 µM

**Q.** And the IC50 [6]?
**A.** 59.8 ± 23 µM

**Q.** And the IC50 at 48 h [8]?
**A.** 68.5 ± 4.8 µM
